Like-named read-outs stand apart in the source and are kept apart here.
What was measured:
CHO–K1 cells [1] = experiment: OCR in the absence or presence of oligomycin (Supplementary Fig. 6); assay type: cell-based, Cricetulus griseus; details: 1 μM oligomycin; for Effect of oligomycin on uncoupler-stimulated OCR: uncoupler at lowest concentration yielding MaxOCR
Protocol: ATP synthase is the major conduit through which protons re-enter the mitochondrial matrix. Thus, we sought to investigate whether the selected uncouplers could stimulate oxygen consumption in the presence of the ATP synthase inhibitor oligomycin.
Supplementary Figure 6. […] At ~24 minutes, 1 μM of oligomycin or vehicle was injected, followed by the injection of the indicated uncoupler or vehicle at ~44 minutes, and 0.5 μM Rotenone / Antimycin A at ~88 minutes.

CHO–K1 cells [2] = experiment: Seahorse XF-96 OCR dose response of 15 uncouplers (Figure 2); assay type: cell-based, Cricetulus griseus; details: CHO–K1; for MaxOCR: 0.32–200 μM, first 24 min post injection; for EC50: mean OCR (% basal) over first 24 min post injection, ± standard error, four-parameter fit, read-out: EC50 (increase of OCR); for MaxOCR lower than that seen with BAM15: Figure 2
Protocol: Stock solutions of the uncouplers and/or Rotenone/Antimycin A were diluted in Seahorse media to give the final concentration indicated in Figure 1, Figure 2, Figure 3 with 0.4% (v/v) DMSO in wells.

[3] = in vivo; cited from earlier work
db/db mice = experiment: Four-week treatment by admixture in chow, metabolic phenotyping; details: 4 weeks; for Body weight / weight gain vs db/db controls: 0.15% BAM15, 0.02% OPC-163493, 0.015% and 0.03% ES9, NTZ and NEN both doses; for Body weight, food intake, or metabolic tissue weights vs control: 0.25% NEN, 0.2% NTZ, 0.01% and 0.02% OPC-163493; for Blood glucose, HbA1c, glucose tolerance vs control / Overall metabolic phenotype vs db/db control (Figure 8, words): NEN both doses; for Blood glucose, HbA1c, glucose tolerance vs control: 0.01% OPC, 0.015% ES9, 0.2% NTZ; for Overall metabolic phenotype vs db/db control (Figure 8, words): OPC-163493 both doses, NTZ 0.2%
Protocol: Body weight and glucose tolerance of male db/+ and db/db mice was assessed at 8–9 weeks of age to obtain baseline measurements. Db/+ were used as lean metabolically healthy controls and given ad libitum access to chow diet. Db/db mice were stratified into 12 groups using R (V4.4.0).
Mice were on treatment for a period of four weeks, during which body weight and food intake were measured daily. […] To counter this, food traps were placed beneath hoppers and leftover food in both the traps and hoppers was weighed daily. HbA1c was measured weekly. At the end of the treatment period, a glucose tolerance test was conducted, with fed and fasted bloods collected. At termination, blood was collected via cardiac puncture under isoflurane anaesthesia. Mice were euthanised by cervical dislocation and harvested tissues were flash-frozen in liquid nitrogen and stored at −80 °C.
Mice were fasted for 6 h and then received intraperitoneal injections of 20% (w/v) dextrose at a dose of 1 g/kg lean body mass. Blood glucose (BG) was measured at the time of fasting (random-fed BG) and then again prior to the commencement of the GTT following the 6-hour daytime fast (fasted BG). […] The rate of glucose clearance was measured using the trapezoidal method for calculation of area under the curve.
HbA1c was measured once weekly using an A1cNow + Portable HbA1c Test Kit. […] HbA1c was measured in the random-fed state.
A glucose tolerance test was conducted at the end of the treatment period, with random fed and 6-hour fasted bloods collected. Blood was collected in heparin tubes and kept on ice prior to centrifugation at 2000×g for 10 min at 4 °C to extract plasma. Plasma insulin concentration was determined using the Crystal Chem Ultra-Sensitive Mouse Insulin ELISA kit, according to manufacturers' instructions for the high range (1–64 ng/mL) assay.

[4] = tested on: Zucker diabetic fatty rats, Akita mice, and Otsuka Long-Evans Tokushima Fatty rats; set-up: method as in PMID 31092829; details: decreased HbA1c and lowered fasting blood glucose; cited from earlier work
[5] = Drug exposure / pharmacokinetics after oral gavage; details: male, C57BL/6J, mouse, plasma, 10 mg/kg
Protocol: Standards were prepared by spiking known concentrations (0.1, 1, 10, 100 and 1000 ng) of the uncoupler into whole blood prior to extraction. Plasma was obtained by centrifugation at 2000×g for 10 min at 4 °C. Seven microlitres (7 μL) of plasma was precipitated in 100 μL of 90% (v/v) acetonitrile and 10% (v/v) methanol. The resulting solution was vortexed for 5 s and then centrifuged at 21,130×g for 10 min at 4 °C. The supernatant was collected in auto-sampler vials for mass spectrometry.
Plasma concentration of mitochondrial uncouplers at indicated timepoints was determined by LC-MS/MS. Error bars show SEM, n = 3 per mitochondrial uncoupler.

[6] = Cricetulus griseus, CHO-K1, 0.4 h

CCCCCCCCCCCC[P+](c1ccccc1)(c1ccccc1)c1ccccc1 [C12TPP, Dodecyl-triphenylphosphonium]
Higher OCR in the presence of oligomycin (CHO–K1 cells [1]; initially): ~60% | Effect of oligomycin on uncoupler-stimulated OCR (CHO–K1 cells [1]): largely unaffected by the presence of oligomycin | Concentration giving max efficacy / MaxOCR (CHO–K1 cells [2]): 3.16 µM | MaxOCR (CHO–K1 cells [2]): ~178 % of basal | OCR at higher doses (CHO–K1 cells [2]; doses above 3.16 μM): ~18 % of baseline | EC50 (CHO–K1 cells [2]; Cricetulus griseus, 0.4 h): 1.02 ± 0.98 µM

liraglutide
Loss of lean mass [3]: up to 60 % of total weight lost

Cc1c2ccncc2c(C)c2c1[nH]c1ccccc12 [ELL, Ellipticine]
Concentration at which OCR increased above basal levels (CHO–K1 cells [2]): > 100 µM | MaxOCR (CHO–K1 cells [2]): ~122 % of basal

O=C(Nc1cc(Cl)cc(Cl)c1)Nc1cc(Cl)cc(Cl)c1 [SR4, 1,3-bis(3,5-dichlorophenyl)urea]
Concentration at which OCR increased above basal levels (CHO–K1 cells [2]): 200 µM | MaxOCR (CHO–K1 cells [2]): ~117 % of basal

CNC(=O)c1cc(Oc2ccc(NC(=O)Nc3ccc(Cl)c(C(F)(F)F)c3)cc2)ccn1 [Sorafenib, 4-[4-({[4-chloro-3 (trifluoromethyl)phenyl]carbamoyl}amino)phenoxy]-N-methylpyridine-2-carboxamide]
Uncoupling activity (CHO–K1 cells [2]; tested concentration range, 120-minute assay): did not have any uncoupling activity

semaglutide
Loss of lean mass [3]: up to 40 % of total weight lost

COc1cc(C(=O)OCC=C(C)C)nc2c(OCC=C(C)C)cccc12 [Ppc-1, Polysphondylium pseudo-candidum-1]
OCR at 31.6 μM (CHO–K1 cells [2]; 31.6 μM): ~130 % basal | Concentration inducing decline in OCR to sub-basal levels (CHO–K1 cells [2]; after ∼40 min of treatment): over 31.6 μM | EC50 (CHO–K1 cells [2]; [6]): 13.5 ± 7.14 µM

O=C(Nc1ccc([N+](=O)[O-])cc1Cl)c1cc(Cl)ccc1O [NEN, Niclosamide ethanolamine]
Effect of oligomycin on uncoupler-stimulated OCR (CHO–K1 cells [1]): largely unaffected by the presence of oligomycin | Body weight / weight gain vs db/db controls (db/db mice): little impact on body weight | Body weight, food intake, or metabolic tissue weights vs control (db/db mice): not significantly different | Blood glucose, HbA1c, glucose tolerance vs control (db/db mice): did not have significantly lower random-fed or 6-hour fasted blood glucose | Overall metabolic phenotype vs db/db control (Figure 8, words) (db/db mice): no significant changes compared to the db/db control except lower liver weight | Liver mass vs db/db control (db/db mice; both doses of BAM15, low dose NEN, high dose NTZ): statistically decreased liver mass | Daily food intake (db/db mice; both doses of BAM15, low dose of NEN, high dose of NTZ): restored normal food intake | MaxOCR lower than that seen with BAM15 (CHO–K1 cells [2]): ~25% | Concentration range with sustained enhanced OCR (OCR ≥ 150% basal) (CHO–K1 cells [2]; tested 0.32–200 μM): 0.32 µM | EC50 (CHO–K1 cells [2]; [6]): 0.09 µM

Cc1sc(-c2ccc(C(F)(F)F)cc2)nc1-c1nn[nH]c1C#N [OPC-163493, 4-(5-methyl-2-(4-(trifluoromethyl)phenyl)thiazol-4-yl)-1H-1,2,3-triazole-5-carbonitrile]
Effect of oligomycin on uncoupler-stimulated OCR (CHO–K1 cells [1]): largely unaffected by the presence of oligomycin | Body weight / weight gain vs db/db controls (db/db mice): non-significant trend for lower body weight | Body weight, food intake, or metabolic tissue weights vs control (db/db mice): not significantly different | Blood glucose, HbA1c, glucose tolerance vs control (db/db mice): did not have significantly lower random-fed or 6-hour fasted blood glucose | Overall metabolic phenotype vs db/db control (Figure 8, words) (db/db mice): No statistically significant changes | Doses with significant anti-diabetic effects (as low as) [4]: ≥ 2 mg/kg/day | Concentration giving max efficacy / MaxOCR (CHO–K1 cells [2]): 10 µM | MaxOCR lower than that seen with BAM15 (CHO–K1 cells [2]): ~22% | EC50 (CHO–K1 cells [2]): 1 µM | EC50 (CHO–K1 cells [2]; [6]): 1.01 ± 1.2 µM | Cmax [5]: 30.9 µM

FC(F)(F)c1nc2c(Cl)c(Cl)c(Cl)c(Cl)c2[nH]1 [TTFB, 4,5,6,7-Tetrachloro-2-trifluoromethylbenzimidazole]
Effect of oligomycin on uncoupler-stimulated OCR (CHO–K1 cells [1]): largely unaffected by the presence of oligomycin | MaxOCR (CHO–K1 cells [2]): 280 % of basal | Concentration inducing decline in OCR to sub-basal levels (CHO–K1 cells [2]; first 24 min): 200 µM | EC50 (CHO–K1 cells [2]; [6]): 0.52 µM

— PMC12303080, “Diverse actions of 15 structurally unrelated mitochondrial uncouplers in cells and mice” (Molecular Metabolism, 2025)
